Holding throughout (assay): crystal violet assay, antiproliferative effect against tumor cells
Type in all cases: cell-based

The subject of assay [1] is intestinal tumor cell line HT29. The following applies: Homo sapiens, HT-29; HT29, at 1 μg/mL, on average. As for the experimental part:
(§1) 4) Determination of the Antiproliferative Effect Against Tumor Cells
(§2) The substances Scopularid A and Scopularid B have shown significant inhibitory action against tumor cell lines, in particular pancreatic tumor cell lines Colo357 and Panc89 and also intestinal tumor cell lines HT29 (on average an inhibition between 25-50% at 1 μg/mL). This activity was determined using the crystal violet assay (Siegmund, D. et al. “Death receptor-induced signalling pathways are differentially regulated by gamma interferon upstream of caspase 8 processing.” Mol. Cell. Biol. 2005; 25: 6363-6379).

In assay [2] the test system is pancreatic tumor cell line Panc89. The following applies: Panc89, at 1 μg/mL, on average. As for the experimental part: as §1, §2
The test system of assay [3] is pancreatic tumor cell line Colo357. To be noted: for inhibition at 1 µg/mL: Homo sapiens, Colo357, at 1 μg/mL, on average. How it is done: as §1, §2

For orientation: inhibition means how much of the control response was suppressed. A lower inhibition goes with a response near the control. Consider `CCCCC(C)C1CC(=O)NCC(=O)N[C@@H](C(C)C)C(=O)N[C@H](CC(C)C)C(=O)N[C@@H](C)C(=O)N[C@@H](Cc2ccccc2)C(=O)O1` (stereo partly shown) [Scopularid B], for which the inhibition at 1 µg/mL in assay [1], in assay [2] and in assay [3] was 25 to 50% each time. Also, in assay [3] (tumor cell lines, in particular Colo357), the “antiproliferative effect against tumor cells (in words)” value is given as “significant inhibitive effect”.
As to `CCCCCCC(C)C1CC(=O)NCC(=O)N[C@@H](C(C)C)C(=O)N[C@H](CC(C)C)C(=O)N[C@@H](C)C(=O)N[C@@H](Cc2ccccc2)C(=O)O1` (stereo partly shown) [Scopularid A], the inhibition at 1 µg/mL in assay [1], in assay [2] and in assay [3] was 25 to 50% throughout.

Values taken from patent US8772445B2, “Production and use of antitumoral cyclodepsipeptides” (Helmholtz-Zentrum Fuer Ozeanforschung Kiel (Geomar), priority 2008, dated 2014).
